Tested on: htel, d[AG3(TTAG3)3]; htel(K) (hybrid in K+); htel(Na) (antiparallel in Na+) (DNA, G4) AGGGTTAGGGTTAGGGTTAGGG
Assay: visible absorption titration, 380 nm, Bard fit
Settings: pH 7, 298 K, per G-tetrad

Kb (K+ (100 mM KCl), 50 mM phosphate, hybrid htel(K), site size 1.8, 7.2 μM complex): 1.1(±0.6) × 10^7 M^-1
Kb (K+ (100 mM KCl), phosphate buffer, hybrid htel(K), site size 1.5): 4.2(±0.5) × 10^5 M^-1
Kb (Na+ (sodium phosphate; 100 mM NaCl in TRIR samples), phosphate buffer, antiparallel htel(Na), site size 1.1): 1.9(±0.7) × 10^5 M^-1
Kb (Na+ (sodium phosphate; 100 mM NaCl in TRIR samples), phosphate buffer, antiparallel htel(Na), site size 1.5): 2.2(±0.3) × 10^6 M^-1
Structure (SMILES): N#Cc1cc2nc3c4cccnc4c4ncccc4c3nc2cc1C#N.[Ru+2].c1cnc2c(c1)ccc1cccnc12.c1cnc2c(c1)ccc1cccnc12

From paper PMC10557146 (2023)
